According to patent publication US12264146B2, “Rho kinase inhibitor, method for preparing same and uses thereof” (BEIJING INCREASE INNOVATIVE DRUG CO., LTD., priority 2018, dated 2025):

How the values were obtained:
[1] = Toxicity test on endothelial cells EA.hy926, CCK-8 cell viability; format: cell-based; conditions: human, 1000~0.32 μmol/L, 5-fold dilution, read-out: IC50 of Test compound (cytotoxicity on EA.hy926 cells)
Experimental: In this test example, 31 groups, i.e., Groups 1 to 31, were set, in which Group 1 was a blank control group, Group 2 was a normal control group, Group 3 was a positive control group, and Groups 4 to 31 were test groups of the compounds of the present application. The specific test operation comprised: 100 μL of endothelial cells EA.hy926 (purchased from Suzhou Beina Chuanglian Biotechnology Co., Ltd.) with a density of 5×10^4 was added to each well of a 96-well plate, and transferred to an incubator at 37° C. with 5% CO2 and saturated humidity conditions and cultured for 24 hours, 100 μL of 2× the test compound solution prepared and diluted with DMEM medium containing 10% fetal bovine serum was added, in which the test compound added in the positive control group was Fasudil hydrochloride (purchased from Beijing Sihuan Pharmaceutical Co., Ltd., SFDA approval number H20173349) solution with different concentrations, an equal volume of DMEM medium was added in the blank control group, an equal volume of PBS buffer was added in the normal control group, and a duplicate well was set for each concentration point. After adding the test compound, the culture was continued in the incubator for 24 hours, then 20 μL of CCK-8 detection solution (purchased from Beijing Solarbio Science & Technology Co., Ltd., Cat. No. CA1210) was added to each well, interacted at 37° C. for 2.5 hours, shaken and mixed well, and then the absorbance value at 450 nm was detected.
OD values were detected, and the cell viability values of test groups of different concentrations were calculated according to the cell viability calculation formula as follows: Cell viability=(Atest group−Ablank control)/(Anormal control−Ablank control)*100%
wherein A represented absorbance value at 450 nm.
Prism6.0 was used to obtain the inhibitor concentration-viability curve and to calculate the IC50 of the test compound, the correlation coefficient R^2>0.99; the inhibitor concentration-viability curves of Fasudil hydrochloride, R-YK1601, R-YK1603, R-YK1606, R-YK1607, R-YK1610 were shown in FIGS. 1 to 6, in which the abscissa was the logarithm on base 10 of the concentration of the test compound, and the ordinate was the cell activity (i.e., cell viability).

[2] = system: prostacyclin (PGI2); experiment: Expression of prostacyclin (PGI2) in EA.Hy926 endothelial cells, ELISA kit; format: cell-based; conditions: EA.Hy926 cell supernatant, 24 h
Experimental: (§1) Commercially available cytokine kits were used to detect the effects of the compounds of the present application on vascular endothelium-derived contracting factor endothelin, vascular endothelium-derived relaxing factor endothelial nitric oxide synthase, nitric oxide, and prostacyclin factor. The detection was performed according to the kit instructions. When testing the effect of the compound of the present application on cytokines, a normal control group, a fasudil hydrochloride group, and high-, medium- and low-dose groups of the compounds of the present application were set up for testing. The fasudil hydrochloride used in this test example was purchased from Beijing Sihuan Pharmaceutical Co., Ltd., with the SFDA approval number of H20173349. The EA.Hy926 cells used in this test example were purchased from Suzhou Beina Chuanglian Biotechnology Co., Ltd.
EA.Hy926 cells were taken and inoculated in a 96-well plate at 5×10^4 cells/mL, 100 μL per well, and cultured adherently for 24 hours, then the test compound prepared in DMEM medium was added, and an equal volume of DMEM medium was added in the normal control group, then the cells were cultured at 37° C. for 24 hours, and then the cell supernatant was taken and placed in an EP tube, and centrifuged for 15 min at 3000 r/min and 15° C. The resulting supernatant was transferred to a new EP tube, and then the detection was performed according to the instruction of ELISA kit (purchased from Wuhan Elabscience Biotechnology Co., Ltd., Cat. No. E-EL-0022c), and the detection results were shown in Table 3.

[3] = system: subarachnoid hemorrhage in rats; experiment: Rat subarachnoid hemorrhage (SAH) model by intravascular puncture, Sugawara bleeding score; format: in vivo; design: dose or concentration left out as unconfirmed; conditions: tail vein injection, 2 administrations 4 h apart, scored 24 h after first administration (Sugawara)
Experimental: Rat subarachnoid hemorrhage (SAH) model was built by intravascular puncture. After being weighed, the rats were anesthetized with sodium pentobarbital (50 mg/kg) or chloral hydrate (300 mg/kg) by intraperitoneal injection, then fixed on their back and maintained the animal's body temperature at about 37° C. The rats' neck skin was shaved for surgery, a median incision was made on the neck, and muscle and fascia were separated along the inner edge of stemocleidomastoid muscle to expose the main and bifurcation of right common carotid artery, and expose the external and internal carotid arteries.
The bifurcation of internal carotid artery was gently clamped with ophthalmic forceps, the bifurcation of the internal carotid artery and the external carotid artery was pierced with a 6-gauge syringe needle, the ophthalmic forceps holding the bifurcation of internal carotid artery was slightly loosen, and No. 3 fishing thread was used to perform a puncture at the bleeding point, the ophthalmic forceps on the internal carotid artery was loosen, and the fishing thread was inserted into skull. […] After staying for 15 seconds, the thread for puncture was completely removed, and the skin was sutured after compression to stop the bleeding. 1.6 million units of penicillin potassium (400,000 units/ml, 0.2 ml/rat) was intramuscularly injected to avoid wound infection. For the sham operation group, the thread for puncture was removed when resistance was felt without piercing the bifurcation of the anterior cerebral artery and the middle cerebral artery, while the remaining operation steps were the same as the model group. After the operation, the rats were transferred to a thermal insulation blanket, then transferred to a squirrel cage when they were basically awake, and kept normally.
In this test experimental, 32 groups were set, i.e., Groups 1 to 32, in which Group 1 was a normal control group (healthy rats), Group 2 was a sham operation control group (not modeling by puncture), Group 3 was a model control group (modeling by puncture, administrated with normal saline), Group 4 was a positive control group (modeling by puncture, administrated with fasudil hydrochloride injection), and Groups 5 to 32 were test groups of the compounds of the present application (modeling by puncture, respectively administrated with the compounds of the present application); and there were 8 animals (purchased from SPF (Beijing) Biotechnology Co., Ltd., the certificate number was SYXK (Beijing) 2016-0002) in each group, half of them were female and half of them were male. The animals were subjected to fasting for 12 to 18 hours without prohibition of drinking water before modeling. […] The rats were euthanized 24 h after the first administration, and the brains were taken. According to Sugawara's method (Reference: Sugawara T, Ayer R, Jadhav V, et al. A new grading system evaluating bleeding scale in filament perforation subarachnoid hemorrhage rat model. J Neurosci Methods. 2008, 167(2):327-34), the subarachnoid hemorrhage amounts were scored, and the scoring results were as follows: […]

[4] = system: nitric oxide (NO); experiment: Synthesis and secretion of nitric oxide (NO) in EA.Hy926 endothelial cells, NO detection kit; format: cell-based; conditions: EA.Hy926 cell supernatant, 24 h
Experimental: as §1
EA.Hy926 cells were inoculated in a 24-well plate at 5×10^5 cells/mL, 400 μL per well, and cultured adherently for 18 hours, then the supernatant was discarded, the test compound prepared in DMEM medium was added, and an equal volume of DMEM medium was added in the normal control group, then the cells was cultured for 24 h in incubator, and then the cell supernatant was collected and detected according to the instructions of NO detection kit (purchased from Beyotime Institute of Biotechnology, Cat. No. 062617171017), and the detection results were shown in Table 5.

For `COc1ncc(F)c2c(S(=O)(=O)N3CCCNC[C@H]3C)cccc12` [Compound R-YK1605, (R)-4-fluoro-1-methoxy-5-((2-methyl-1,4-diazacycloheptan-1-yl)sulfonyl)isoquinoline], the IC50 at 24 h [1] was 184 µM, the “expression of prostacyclin in endothelial cells: Detection result of test compound at low dose (0.4 μM)” value (“expression of prostacyclin … (0.4 μM)” for short) [2] was 280.07 ± 7.00 pg/mL and the “expression of prostacyclin in endothelial cells: Detection result of test compound at medium dose (2 μM)” value (“expression of prostacyclin … (2 μM)” for short) [2] was 274.72 ± 32.60 pg/mL. For the same compound, the “expression of prostacyclin in endothelial cells: Detection result of test compound at high dose (10 μM)” value (“expression of prostacyclin … (10 μM)” below) [2] was 246.51 ± 1.44 pg/mL, the “Cerebral hemorrhage volume score (x ± s)” value [3] was 12.95 ± 2.04 and the “nitric oxide secretion in endothelial cells: Detection result of test compound at low dose (0.4 μM)” value (from here on “nitric oxide secretion … (0.4 μM)”) [4] was 0.950 ± 0.134 μm. The “nitric oxide secretion in endothelial cells: Detection result of test compound at medium dose (2 μM)” value (“nitric oxide secretion … (2 μM)” for short) [4] was 1.023 ± 0.006 μm and the “nitric oxide secretion in endothelial cells: Detection result of test compound at high dose (10 μM)” value (“nitric oxide secretion … (10 μM)” below) [4] was 1.122 ± 0.006 μm.

In the case of `C[C@@H]1CNCCCN1S(=O)(=O)c1cccc2c(O)ncc(Cl)c12` [Compound R-YK1606, (R)-4-chloro-5-((2-methyl-1,4-diazacycloheptan-1-yl)sulfonyl)isoquinolin-1-ol], the IC50 at 24 h [1] is reported as 181 µM, the “expression of prostacyclin … (0.4 μM)” value [2] is reported as 292.24 ± 2.59 pg/mL and the “expression of prostacyclin … (2 μM)” value [2] is reported as 278.32 ± 46.42 pg/mL. For the same compound, the “expression of prostacyclin … (10 μM)” value [2] was 258.58 ± 7.57 pg/mL, the “Cerebral hemorrhage volume score (x ± s)” value [3] was 12.69 ± 2.01 and the “nitric oxide secretion … (0.4 μM)” value [4] was 1.131 ± 0.019 μm. The “nitric oxide secretion … (2 μM)” value [4] was 1.009 ± 0.102 μm and the “nitric oxide secretion … (10 μM)” value [4] was 1.158 ± 0.223 μm.

For `CCc1cnc(O)c2cccc(S(=O)(=O)N3CCCNC[C@H]3C)c12` [Compound R-YK1607, (R)-4-ethyl-5-((2-methyl-1,4-diazacycloheptan-1-yl)sulfonyl)isoquinolin-1-ol], the IC50 at 24 h [1] was 230 µM, the “expression of prostacyclin … (0.4 μM)” value [2] was 249.20 ± 2.28 pg/mL and the “expression of prostacyclin … (2 μM)” value [2] was 257.34 ± 7.96 pg/mL. The “expression of prostacyclin … (10 μM)” value [2] was 241.68 ± 3.34 pg/mL, the “Cerebral hemorrhage volume score (x ± s)” value [3] was 12.12 ± 2.06 and the “nitric oxide secretion … (0.4 μM)” value [4] was 0.898 ± 0.006 μm. The “nitric oxide secretion … (2 μM)” value [4] was 0.924 ± 0.032 μm and the “nitric oxide secretion … (10 μM)” value [4] was 1.010 ± 0.006 μm.

In the case of `O=S(=O)(c1cccc2cnccc12)N1CCCNC[C@H]1C1CC1` [Compound R-YK1608, (R)-5-((2-cyclopropyl-1,4-diazacycloheptan-1-yl)sulfonyl)isoquinoline], the IC50 at 24 h [1] is reported as 165 µM, the “expression of prostacyclin … (0.4 μM)” value [2] is reported as 257.55 ± 4.12 pg/mL and the “expression of prostacyclin … (2 μM)” value [2] is reported as 251.98 ± 10.41 pg/mL. For the same compound, the “expression of prostacyclin … (10 μM)” value [2] was 242.23 ± 1.75 pg/mL, the “Cerebral hemorrhage volume score (x ± s)” value [3] was 13.18 ± 1.97 and the “nitric oxide secretion … (0.4 μM)” value [4] was 0.918 ± 0.008 μm. The “nitric oxide secretion … (2 μM)” value [4] was 0.984 ± 0.042 μm and the “nitric oxide secretion … (10 μM)” value [4] was 1.105 ± 0.007 μm.

In the case of `CC(C)[C@@H]1CNCCCN1S(=O)(=O)c1cccc2c(O)nccc12` [Compound R-YK1609, (R)-5-((2-isopropyl-1,4-diazacycloheptan-1-yl)sulfonyl)isoquinolin-1-ol], the IC50 at 24 h [1] is reported as 327 µM, the “expression of prostacyclin … (0.4 μM)” value [2] is reported as 259.20 ± 2.21 pg/mL and the “expression of prostacyclin … (2 μM)” value [2] is reported as 260.34 ± 7.94 pg/mL. The “expression of prostacyclin … (10 μM)” value [2] was 238.68 ± 3.34 pg/mL, the “Cerebral hemorrhage volume score (x ± s)” value [3] was 12.27 ± 2.02 and the “nitric oxide secretion … (0.4 μM)” value [4] was 0.978 ± 0.028 μm. For the same compound, the “nitric oxide secretion … (2 μM)” value [4] was 1.014 ± 0.051 μm and the “nitric oxide secretion … (10 μM)” value [4] was 1.115 ± 0.006 μm.

With `CC[C@@H]1CNCCCN1S(=O)(=O)c1cccc2c(OC)nccc12` [Compound R-YK1610, (R)-5-((2-ethyl-1,4-diazacycloheptan-1-yl)sulfonyl)-1-methoxyisoquinoline] the IC50 at 24 h [1] was 169 µM, the “expression of prostacyclin … (0.4 μM)” value [2] was 275.40 ± 9.89 pg/mL and the “expression of prostacyclin … (2 μM)” value [2] was 267.35 ± 10.69 pg/mL. The “expression of prostacyclin … (10 μM)” value [2] was 253.44 ± 12.48 pg/mL, the “Cerebral hemorrhage volume score (x ± s)” value [3] was 12.83 ± 2.05 and the “nitric oxide secretion … (0.4 μM)” value [4] was 0.997 ± 0.057 μm. For the same compound, the “nitric oxide secretion … (2 μM)” value [4] was 1.068 ± 0.032 μm and the “nitric oxide secretion … (10 μM)” value [4] was 1.121 ± 0.006 μm.
